How the values were obtained:
nucleic acids = experiment: Excitation/emission maxima of dyes complexed with nucleic acids; type: physicochemical; design: key: wavelength in nm; conditions: Table 2; dye complexed with nucleic acids
From the text: Dye I is lightly colored and is virtually non-fluorescent when diluted in aqueous solution according to the method of the invention. Dye I is highly membrane-permeant and labels all cells, whether live or dead. When Dye I binds with intracellular nucleic acid polymers such as DNA and RNA, the resultant dye-nucleic acid complex becomes extremely fluorescent upon illumination. The quantum yield of the preferred Dye I/DNA complex is greater than 0.02, typically greater than 0.1, preferably greater than 0.2, and more preferably greater than 0.3. Typically, Dye I combines with intracellular nucleic acids to give a green or red fluorescence. When excited at a wavelength between about 300 nm and about 500 nm, the dyes complexed with nucleic acids have an emission maximum between about 500 and about 610 nm (see Table 2). Preferably, Dye I complexed with nucleic acids has an emission maximum of between about 500 nm and about 535 nm, resulting in a true green fluorescent signal in cells of the sample where Dye I is present alone.

DNA = experiment: Quantum yield of dye on DNA versus fluorescein; type: physicochemical; conditions: Table 2; Tris buffered saline pH 10; fluorescein assumed 0.92
From the text: ^ Quantum yield (QY) of dye on DNA (standard solution in Tris buffere
saline adjusted to pH 10) in comparison with fluorescein, which is assume
to have a quantum yield of 0.92 under the test conditions.
Factors such as degree of fluorescence enhancement with nucleic acid binding, self quenching, molar extinction coefficient, membrane permeability, intracellular partitioning, nucleic acid binding affinity, and quantum yield contribute to the overall fluorescence of nucleic acid stains in cells. Enhanced cell fluorescence obtained with Dye I is related to unexpected properties other than quantum yield alone. Quantum yield is determined as described above (foot note to Table 2). Normalized quantum yield is determined to illustrate the fold-change in quantum yield of Dye I compared with thiazole orange, a related cell-permeant dye. The normalized fluorescence values represent the quantum yield of each dye divided by the quantum yield of thiazole orange. Fluorescence per cell is also scaled to thiazole orange values for both E. coli and S. aureus to allow direct comparison between relative (normalized) quantum yield and relative (normalized) fluorescence/cell.

SMILES | EM max (nucleic acids) | EX max (nucleic acids) | QY (DNA) (DNA)
C[n+]1c(C=C2C=CN(c3ccccc3)C(Cl)=C2)sc2ccccc21 [compound 578] | 504 | 470 | –
COc1ccc(N2C(Cl)=CC(=Cc3sc4ccccc4[n+]3C)c3ccccc32)cc1 [compound 582] | 533 | 516 | –
COc1ccccc1N1C=CC(=Cc2sc3ccccc3[n+]2C)C=C1Cl [compound 616] | 510 | 471 | –
CCCCC1=CC(=CC=Cc2sc3ccccc3[n+]2C)c2ccccc2N1c1ccccc1 [compound 621] | 656 | 635 | –
C[n+]1c(C=C2C=C(c3ccccc3)N(c3ccccc3)c3ccccc32)sc2ccccc21 [compound 630] | 544 | 517 | 0.19
C[n+]1c(C=C2C=C(Cl)N(c3ccccc3)c3ccccc32)oc2ccccc21 [compound 633] | 508 | 489 | 0.12
CN1C(c2ccccc2)=CC(=Cc2sc3ccccc3[n+]2C)c2ccccc21 [compound 639] | 548 | 513 | 0.20
C[n+]1c(C=C2C=CN(c3ccccc3)C=C2)sc2ccccc21 [compound 640] | 516 | 471 | –
CSC1=CC(=Cc2sc3ccccc3[n+]2C)c2ccccc2N1c1ccccc1 [compound 641] | 526 | 503 | 0.35
COC1=CC(=CC=Cc2oc3ccccc3[n+]2C)c2ccccc2N1c1ccccc1 [compound 672] | 611 | 586 | –
CCOC1=CC(=Cc2sc3ccccc3[n+]2C)c2ccccc2N1c1ccccc1 [compound 720] | 507 | 487 | 0.52
CCCCC1=CC(=CC=Cc2sc3ccccc3[n+]2C)C=CN1c1ccccc1 [compound 742] | 611 | 570 | –
CN1C(=Cc2cc(N3CCOCC3)[n+](C)c3ccccc23)Sc2ccccc21 [compound 752] | 518 | 494 | 0.51
CCN(CC)C1=CC(=Cc2sc3ccccc3[n+]2C)c2ccc(OC)cc2N1c1ccccc1 [compound 760] | 510 | 485 | 0.68
CC(C)OC1=CC(=Cc2sc3ccccc3[n+]2C)c2ccccc2N1c1ccccc1 [compound 764] | 508 | 486 | 0.58
C[n+]1c(C=C2C=C(C3CCCCC3)N(c3ccccc3)c3ccccc32)sc2ccccc21 [compound 765] | 524 | 506 | 0.50
C[n+]1c(C=C2C=C(Br)N(c3ccccc3)c3ccccc32)sc2ccccc21 [compound 774] | 533 | 517 | –
CCCN(CCC)C1=CC(=Cc2sc3ccccc3[n+]2C)c2ccccc2N1c1ccccc1 [compound 776] | – | – | 0.65
CN1C(=Cc2cc(Cl)[n+](-c3cccs3)c3ccccc23)Sc2ccccc21 [compound 830] | 533 | 517 | –
C[n+]1c(C=C2C=C(F)N(c3ccccc3)c3ccccc32)sc2ccccc21 [compound 834] | 507 | 486 | –
C[n+]1c(C=C2C=C(Oc3ccccc3)N(c3ccccc3)c3ccccc32)sc2ccccc21 [compound 835] | 518 | 495 | –
C[n+]1c(C=C2C=C(Sc3ccccn3)N(c3ccccc3)c3ccccc32)sc2ccccc21 [compound 853] | 555 | 516 | –
C[n+]1c(C=C2C=C(OS(=O)(=O)C(F)(F)F)N(c3ccccc3)c3ccccc32)sc2ccccc21 [compound 854] | 520 | 483 | –
CN1CCN(C2=CC(=Cc3sc4ccccc4[n+]3C)c3ccccc3N2c2ccccc2)CC1 [compound 856] | 523 | 502 | 0.43
COc1ccc2c(c1)N(c1ccccc1)C(Cl)=CC2=Cc1sc2ccccc2[n+]1C [compound 5103] | 530 | 511 | 0.18
CN1C(C2CCCCC2)=CC(=Cc2sc3ccccc3[n+]2C)c2ccccc21 [compound 6104] | 523 | 505 | 0.52
